Experimental data published in PubChem BioAssay (NCI).
“And” between values parts separate entries of the source, which are not always exact repeats. Identical values can stand only once.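 Grown in 96-well plates, cells were treated for 48 hours with each compound at five concentrations. Insufficient inhibition: endpoint recorded as highest concentration tested. GI50 is the concentration that inhibits growth by half. TGI is the concentration that stops growth completely.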

Columns and labels:
Assay in all cases: DTP human tumour cell line panel, 48 h
SW-620 colon = test system: SW-620 colon
RXF 393 renal = test system: RXF 393 renal
LOX IMVI melanoma = test system: LOX IMVI melanoma
HCT-116 colon = test system: HCT-116 colon
KM12 colon = test system: KM12 colon
HOP-62 NSCLC = test system: HOP-62 NSCLC
U251 CNS = test system: U251 CNS
UACC-257 melanoma = test system: UACC-257 melanoma
SF-268 CNS = test system: SF-268 CNS
MDA-MB-435 = test system: MDA-MB-435

Row | SMILES | GI50 (SW-620 colon) [µM] | TGI (SW-620 colon) | GI50 (RXF 393 renal) [µM] | TGI (RXF 393 renal) | GI50 (LOX IMVI melanoma) [µM] | TGI (LOX IMVI melanoma) | GI50 (HCT-116 colon) [nM] | TGI (HCT-116 colon) | GI50 (KM12 colon) [nM] | TGI (KM12 colon) [µM] | GI50 (HOP-62 NSCLC) [µM] | TGI (HOP-62 NSCLC) | GI50 (U251 CNS) [µM] | TGI (U251 CNS) | GI50 (UACC-257 melanoma) [nM] | TGI (UACC-257 melanoma) | GI50 (SF-268 CNS) [µM] | TGI (SF-268 CNS) | GI50 (MDA-MB-435) [nM] | TGI (MDA-MB-435)
1 | COc1ccc(-c2nn(-c3cccc(Cl)c3)cc2-c2cc(-c3cccs3)no2)cc1 | 4.35 | 22.6 µM | 3.49 | 20.1 µM | 3.04 | 10.9 µM | 3030 | 12.7 µM | 2980 | 11.1 | 13.9 | 28.1 µM | 3.61 | 15.4 µM | 3070 | 15.1 µM | 4.94 | 47.1 µM | 3260 | 17.3 µM
2 | CC(C)(C)OC(=O)n1c(Cl)c(C(=O)N=C=S)c2ccccc21 | 35.4 | > 100 µM | 53.4 | > 100 µM | 29.2 | > 100 µM | 55700 | > 100 µM | 18400 | 52 | > 100 | > 100 µM | 34.2 | > 100 µM | 55400 | > 100 µM | 37.5 | > 100 µM | 80800 | > 100 µM
3 | COc1ccc(CNC(=O)c2ccc(-c3cc(-c4nnc(C)o4)ccc3C)cc2)cc1 | > 25 | > 25 µM | > 25 | > 25 µM | > 25 | > 25 µM | 14600 | > 25 µM | > 25000 | > 25 | 17.5 | > 25 µM | > 25 | > 25 µM | 12800 | > 25 µM | 21 | > 25 µM | 10600 | > 25 µM
4 | Cc1cc(C)c2nccc(NCCCN(C)C)c2c1[N+](=O)[O-] |  | > 100 µM |  | 47.8 µM |  | 51.9 µM |  | > 100 µM |  | > 100 |  | > 100 µM |  | > 100 µM |  | 33.7 µM |  | 95 µM |  | > 100 µM
5 | N=C(N)SCC(=O)O |  | > 100 µM |  | > 100 µM |  | > 100 µM |  | > 100 µM |  | > 100 |  | > 100 µM |  | > 100 µM |  | > 100 µM |  | > 100 µM |  | > 100 µM
6 | CCCC(=O)Nc1cn(COC)c(C(=O)N2C[C@H]3C[C@@]34C2=CC(=O)c2[nH]cc(C)c24)n1 | 13.4 | 50 µM and > 100 µM | 3.05 | 26.9 µM and 8.82 µM | 3.13 | 35.4 µM and > 100 µM | 2320 | 50 µM and 12 µM | 8810 | > 100 | 4.52 | 50 µM and > 100 µM |  | 50 µM and > 100 µM | 10500 | 18.7 µM and 83.3 µM | 3.4 | 50 µM and > 100 µM | 13400 | 26.2 µM and > 100 µM
7 | CC[C@H](C)[C@H](NC(=O)N[C@@H](C)c1ccccc1)C(=O)N(C)[C@H](C[C@@H](OC(C)=O)c1nc(C(=O)N[C@@H](Cc2ccccc2)C[C@H](C)C(=O)OC)cs1)C(C)C | 26.4 | > 100 µM | 13.9 | 57.3 µM | 30.9 | > 100 µM | 21800 | 68.5 µM | 17200 | 84.3 | 33 | > 100 µM | 33.1 | > 100 µM | > 100000 | > 100 µM | 29.7 | > 100 µM | 3270 | 13.3 µM
8 | Cc1cc(S(N)(=O)=O)c(S/C(=N\NS(=O)(=O)c2ccccc2)c2ccc(Cl)c(Cl)c2)cc1Cl | 37.3 | > 100 µM | 33.3 | > 100 µM | 36.1 | > 100 µM | 38000 | > 100 µM | 42000 | > 100 | 63.5 | > 100 µM | 28.8 | > 100 µM | 40300 | > 100 µM | 33.8 | > 100 µM | 42900 | > 100 µM
9 | CC(=O)OC1Oc2cc(C)c(C)cc2-c2oc(=O)c(-c3ccccc3)cc21 (centres undefined) | 0.242 | > 100 µM | 0.343 | 37.1 µM | 1.47 | > 100 µM | 455 | 46.9 µM | 307 | 11.8 | 0.44 | 21.9 µM | 0.44 | 58.8 µM | 537 | 39 µM | 0.58 | > 50.6 µM | 36 | 0.199 µM
10 | COc1cccc(C2CC(=O)Nc3cc4c(cc32)CCC4)c1OC (centres undefined) | 3.11 | > 46.2 µM | 3.34 | 13.7 µM | 4.26 | 16.8 µM | 3610 | 16 µM | 4210 | 18.6 | 5.97 | > 46.8 µM | 4.71 | 19.3 µM | 1110 | 11.2 µM | 5.34 | 27.5 µM | 1440 | 4.1 µM
11 | NCCNc1nc2ccccc2c2c(=O)c3cc(F)cc(Cl)c3sc12 | 1.54 | 3.08 µM | 1.62 | 3.16 µM | 1.66 | 3.17 µM | 694 | 1.99 µM | 1730 | 3.24 | 1.35 | 3.04 µM | 1.22 | 2.66 µM | 1850 | 3.72 µM | 1.57 | 3.29 µM | 1730 | 3.22 µM
12 | O=C(O)C(Cc1c[nH]c2ccccc12)N1C(=O)c2ccccc2C1=O (centres undefined) |  | > 100 µM |  | > 100 µM |  | > 100 µM |  | > 100 µM |  | > 100 |  | > 100 µM |  | > 100 µM |  | > 100 µM |  | > 100 µM |  | > 100 µM
13 | Cc1ccc(NCCNCC(O)CO)c2c(=O)c3ccccc3sc12 (centres undefined) | 1.04 | 2.57 µM | 1.43 | 2.89 µM | 1.43 | 2.84 µM | 1050 | 2.3 µM | 1740 | 3.6 | 1.35 | 2.95 µM | 1.67 | 3.51 µM | 1870 | 3.58 µM | 1.81 | 3.96 µM | 1520 | 3.1 µM
14 | Cc1cc(C(=O)Nc2cc(Nc3ncccc3-c3ncnc4nc[nH]c34)ccc2F)cc(C(C)(C)C#N)c1 | 0.649 | > 100 µM | 4.82 | 42 µM | 0.0414 | 0.338 µM | 151 | > 41.9 µM | 2900 | > 100 | 0.461 | > 100 µM | 3.74 | > 100 µM | 86.7 | > 100 µM | 7.85 | > 100 µM | 182 | > 100 µM
15 | CCCCCCCCCCCCCCCCCCNC(=O)[C@H]1CSC(c2ccc(F)c(OC)c2)N1 (some centres undefined) | 0.5 | 1.54 µM | 0.894 | 1.6 µM | 0.788 | 2.07 µM | 835 | 1.64 µM | 899 | 1.79 | 0.843 | 1.6 µM | 0.866 | 1.6 µM | 971 | 1.88 µM | 0.908 | 1.84 µM | 518 | 1.2 µM
16 | N#CC1=C(N)NC(=S)C(C#N)C12Nc1ccccc1S2 (centres undefined) | 19.1 | 42.3 µM | 27.7 | 57.5 µM | 13.5 | 32.6 µM | 18500 | 41.7 µM | 24800 | > 100 | 17.6 | 72.4 µM | 18.3 | 40.2 µM | 19600 | 35.4 µM | 14.8 | 42.9 µM | 17200 | 44.7 µM
17 | Nc1ccc2c(SCC(=O)Nc3ccccc3-c3ccccc3NC(=O)CSc3c4ccccc4nc4cc(N)ccc34)c3ccccc3nc2c1 |  | 67.4 µM |  | 63.5 µM |  | 66.2 µM |  | 64.5 µM |  | 65.8 |  | 63.4 µM |  | 66.5 µM |  | 71.9 µM |  | 93.3 µM |  | > 73.5 µM
18 | COc1ccc(-c2nn(-c3cccc(Cl)c3)cc2/C=C2\C(=N)N(c3ccccc3)N=C2N)cc1 | 0.399 | 20.7 µM | 17.5 | > 80.6 µM | 0.337 | 4.58 µM | 1590 | 17.2 µM | 200 | 1.79 | 16 | > 80.6 µM | 3 | 35.2 µM | 2140 | 33.6 µM | 4.52 | > 100 µM | 495 | 21.2 µM
19 | O=C1Nc2ccc(Br)cc2C1=Nc1ccc(Cl)cc1 |  | 32.5 µM |  | 40.1 µM |  | 31.8 µM |  | 62.9 µM |  | 24.8 |  | 52.1 µM |  | 88.8 µM |  | 79.1 µM |  | 55.8 µM |  | 20.6 µM
20 | C#CCn1cc(C=C2C(=O)NC(=S)NC2=O)c2cc(Cl)ccc21 | 1.79 | 3.45 µM | 1.84 | 3.65 µM | 1.65 | 3.11 µM | 1860 | 3.6 µM | 1620 | 3.33 | 2.64 | 8.98 µM | 1.87 | 3.9 µM | 2880 | 8.63 µM | 2.12 | 5.41 µM | 1920 | 4.36 µM
